In PMC8799717, “Pharmacological targeting PIKfyve and tubulin as an effective treatment strategy for double-hit lymphoma” (Cell Death Discovery, 2022) one finds remaining binding data, which are given here for 1 compound.

Common to all, as to assay: biochemical
What all share (set-up): KINOMEscan active-site-directed competition binding panel, 468 kinases, percent of DMSO control at 1 uM
Common to all, as to settings: KINOMEscan binding, percent of DMSO control; read-out: Ctrl%

The target in test [1] is T1, ABL1(M351T)-phosphorylated (Homo sapiens, UniProt P00519, M351T).
T1 construct: phosphorylated

Test [2] has as its target CAMK2B (Homo sapiens, UniProt Q13554).
Test [3] has as its target T2, CDK4-cyclinD3 (Homo sapiens, UniProt P11802).
T2 construct: cyclinD3

In test [4] the target is T3, DMPK2 (Homo sapiens, UniProt Q6DT37).
T3 construct: gene CDC42BPG
T3 sequence (Q6DT37 whole entry): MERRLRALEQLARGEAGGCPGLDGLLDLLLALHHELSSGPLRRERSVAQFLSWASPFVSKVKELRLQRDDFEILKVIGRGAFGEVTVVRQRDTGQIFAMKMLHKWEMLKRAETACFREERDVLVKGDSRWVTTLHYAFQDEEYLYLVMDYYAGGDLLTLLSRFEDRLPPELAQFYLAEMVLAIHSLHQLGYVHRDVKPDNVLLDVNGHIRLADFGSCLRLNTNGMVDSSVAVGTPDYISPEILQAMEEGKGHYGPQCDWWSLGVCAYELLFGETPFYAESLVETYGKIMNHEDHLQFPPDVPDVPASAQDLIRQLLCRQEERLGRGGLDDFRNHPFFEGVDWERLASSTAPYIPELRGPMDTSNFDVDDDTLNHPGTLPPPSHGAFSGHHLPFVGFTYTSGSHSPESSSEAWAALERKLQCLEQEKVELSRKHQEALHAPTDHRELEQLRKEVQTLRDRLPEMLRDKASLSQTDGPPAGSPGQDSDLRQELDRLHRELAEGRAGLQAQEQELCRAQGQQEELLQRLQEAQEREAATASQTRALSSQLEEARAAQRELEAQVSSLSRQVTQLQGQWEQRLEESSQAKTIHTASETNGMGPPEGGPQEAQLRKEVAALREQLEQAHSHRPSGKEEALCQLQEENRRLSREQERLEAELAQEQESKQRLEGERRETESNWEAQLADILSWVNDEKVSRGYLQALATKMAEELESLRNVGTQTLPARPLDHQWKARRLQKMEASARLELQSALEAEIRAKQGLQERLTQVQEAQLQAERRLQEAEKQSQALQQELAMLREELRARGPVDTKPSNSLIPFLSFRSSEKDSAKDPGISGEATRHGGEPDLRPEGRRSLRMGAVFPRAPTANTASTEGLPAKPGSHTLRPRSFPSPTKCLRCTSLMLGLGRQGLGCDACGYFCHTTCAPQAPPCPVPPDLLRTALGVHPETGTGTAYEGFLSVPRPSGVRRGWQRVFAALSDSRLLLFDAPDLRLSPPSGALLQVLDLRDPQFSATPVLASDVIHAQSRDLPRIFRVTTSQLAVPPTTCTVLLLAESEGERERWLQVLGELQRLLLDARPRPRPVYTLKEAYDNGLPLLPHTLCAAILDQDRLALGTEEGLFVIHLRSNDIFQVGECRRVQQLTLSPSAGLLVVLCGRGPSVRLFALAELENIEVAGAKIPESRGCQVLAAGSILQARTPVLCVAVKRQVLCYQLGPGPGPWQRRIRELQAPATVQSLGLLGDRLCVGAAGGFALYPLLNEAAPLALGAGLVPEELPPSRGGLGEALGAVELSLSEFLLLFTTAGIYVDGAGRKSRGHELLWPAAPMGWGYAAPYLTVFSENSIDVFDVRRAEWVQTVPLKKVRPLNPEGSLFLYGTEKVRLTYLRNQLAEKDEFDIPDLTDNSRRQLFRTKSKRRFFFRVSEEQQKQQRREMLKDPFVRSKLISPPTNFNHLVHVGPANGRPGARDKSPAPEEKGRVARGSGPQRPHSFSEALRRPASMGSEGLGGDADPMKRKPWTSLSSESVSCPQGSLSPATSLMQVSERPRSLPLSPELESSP

The target of test [5] is T4, DRAK2 (Homo sapiens, UniProt O94768).
T4 construct: gene STK17B

In test [6] the target is EGFR(L858R) (Homo sapiens, UniProt P00533, L858R).
In test [7] the target is FLT3-autoinhibited (Homo sapiens, UniProt P36888).
Test [8] addresses GRK7 (Homo sapiens, UniProt Q8WTQ7).
Test [9] has as its target INSRR (Homo sapiens, UniProt P14616).
For test [10], the target named is LIMK2 (Homo sapiens, UniProt P53671).
The target of test [11] is MAK (Homo sapiens, UniProt P20794).
Test [12] has as its target MAP4K4 (Homo sapiens, UniProt O95819).
In test [13] the target is MARK3 (Homo sapiens, UniProt P27448).
Test [14] concerns the target MERTK (Homo sapiens, UniProt Q12866).
Test [15] has as its target NEK1 (Homo sapiens, UniProt Q96PY6).
For test [16], the target named is PIM3 (Homo sapiens, UniProt Q86V86).
Test [17] deals with T5, PKAC-beta (Homo sapiens, UniProt P22694).
T5 construct: gene PRKACB

Test [18] has as its target PRKD2 (Homo sapiens, UniProt Q9BZL6).
Test [19] addresses RET(V804L) (Homo sapiens, UniProt P07949, V804L).
For test [20], the target named is T6, RPS6KA5(Kin.Dom.1-N-terminal) (Homo sapiens, UniProt O75582).
T6 construct: Kin.Dom.1-N-terminal
T6 sequence (O75582 whole entry): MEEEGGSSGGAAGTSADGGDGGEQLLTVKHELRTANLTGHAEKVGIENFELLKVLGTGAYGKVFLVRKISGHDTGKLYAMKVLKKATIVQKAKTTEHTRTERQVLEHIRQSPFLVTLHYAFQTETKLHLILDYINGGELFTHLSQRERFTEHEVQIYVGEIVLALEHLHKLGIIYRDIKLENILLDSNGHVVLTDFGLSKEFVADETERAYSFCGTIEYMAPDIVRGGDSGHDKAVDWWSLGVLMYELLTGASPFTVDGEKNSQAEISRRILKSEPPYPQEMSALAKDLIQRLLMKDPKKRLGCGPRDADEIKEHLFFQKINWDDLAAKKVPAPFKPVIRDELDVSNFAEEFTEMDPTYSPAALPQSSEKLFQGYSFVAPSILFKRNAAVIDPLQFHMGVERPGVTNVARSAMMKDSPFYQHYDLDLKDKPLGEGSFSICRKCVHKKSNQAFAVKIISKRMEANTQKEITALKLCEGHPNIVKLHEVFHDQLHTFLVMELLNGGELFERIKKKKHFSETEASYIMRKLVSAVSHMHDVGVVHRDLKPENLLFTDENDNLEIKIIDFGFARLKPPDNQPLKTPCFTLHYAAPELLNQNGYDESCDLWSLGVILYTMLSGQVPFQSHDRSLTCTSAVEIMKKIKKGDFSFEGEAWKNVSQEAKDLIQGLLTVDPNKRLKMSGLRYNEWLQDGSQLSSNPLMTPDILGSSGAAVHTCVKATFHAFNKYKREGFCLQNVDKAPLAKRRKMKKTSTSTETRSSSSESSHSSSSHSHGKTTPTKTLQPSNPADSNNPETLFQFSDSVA

Test [21] deals with T7, RSK2(Kin.Dom.1-N-terminal) (Homo sapiens, UniProt P51812).
T7 construct: gene RPS6KA3; Kin.Dom.1-N-terminal

Test [22] addresses STK36 (Homo sapiens, UniProt Q9NRP7).
Test [23] concerns the target WNK3 (Homo sapiens, UniProt Q9BYP7).
Test [24] addresses T8, p38-beta (Homo sapiens, UniProt Q15759).
T8 construct: gene MAPK11

Structures are written as SMILES.

CAMK2B, sequence (Q13554 whole entry): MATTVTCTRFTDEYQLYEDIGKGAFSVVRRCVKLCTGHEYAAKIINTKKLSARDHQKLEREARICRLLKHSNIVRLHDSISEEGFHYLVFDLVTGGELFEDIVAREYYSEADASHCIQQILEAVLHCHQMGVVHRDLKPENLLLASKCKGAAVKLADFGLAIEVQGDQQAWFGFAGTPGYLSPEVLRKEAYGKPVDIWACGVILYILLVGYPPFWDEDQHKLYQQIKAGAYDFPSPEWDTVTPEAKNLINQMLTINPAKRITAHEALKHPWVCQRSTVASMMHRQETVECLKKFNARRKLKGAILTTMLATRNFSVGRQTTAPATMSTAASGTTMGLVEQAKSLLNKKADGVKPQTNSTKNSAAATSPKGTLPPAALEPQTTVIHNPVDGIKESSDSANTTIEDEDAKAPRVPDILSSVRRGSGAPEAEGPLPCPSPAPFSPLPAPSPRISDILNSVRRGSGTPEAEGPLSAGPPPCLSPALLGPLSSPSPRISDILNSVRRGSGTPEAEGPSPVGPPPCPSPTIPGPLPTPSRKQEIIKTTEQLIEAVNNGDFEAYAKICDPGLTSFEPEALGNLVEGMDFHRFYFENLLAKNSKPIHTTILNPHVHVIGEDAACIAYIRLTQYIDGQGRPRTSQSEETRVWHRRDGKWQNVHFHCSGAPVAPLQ
NEK1, sequence (Q96PY6 whole entry): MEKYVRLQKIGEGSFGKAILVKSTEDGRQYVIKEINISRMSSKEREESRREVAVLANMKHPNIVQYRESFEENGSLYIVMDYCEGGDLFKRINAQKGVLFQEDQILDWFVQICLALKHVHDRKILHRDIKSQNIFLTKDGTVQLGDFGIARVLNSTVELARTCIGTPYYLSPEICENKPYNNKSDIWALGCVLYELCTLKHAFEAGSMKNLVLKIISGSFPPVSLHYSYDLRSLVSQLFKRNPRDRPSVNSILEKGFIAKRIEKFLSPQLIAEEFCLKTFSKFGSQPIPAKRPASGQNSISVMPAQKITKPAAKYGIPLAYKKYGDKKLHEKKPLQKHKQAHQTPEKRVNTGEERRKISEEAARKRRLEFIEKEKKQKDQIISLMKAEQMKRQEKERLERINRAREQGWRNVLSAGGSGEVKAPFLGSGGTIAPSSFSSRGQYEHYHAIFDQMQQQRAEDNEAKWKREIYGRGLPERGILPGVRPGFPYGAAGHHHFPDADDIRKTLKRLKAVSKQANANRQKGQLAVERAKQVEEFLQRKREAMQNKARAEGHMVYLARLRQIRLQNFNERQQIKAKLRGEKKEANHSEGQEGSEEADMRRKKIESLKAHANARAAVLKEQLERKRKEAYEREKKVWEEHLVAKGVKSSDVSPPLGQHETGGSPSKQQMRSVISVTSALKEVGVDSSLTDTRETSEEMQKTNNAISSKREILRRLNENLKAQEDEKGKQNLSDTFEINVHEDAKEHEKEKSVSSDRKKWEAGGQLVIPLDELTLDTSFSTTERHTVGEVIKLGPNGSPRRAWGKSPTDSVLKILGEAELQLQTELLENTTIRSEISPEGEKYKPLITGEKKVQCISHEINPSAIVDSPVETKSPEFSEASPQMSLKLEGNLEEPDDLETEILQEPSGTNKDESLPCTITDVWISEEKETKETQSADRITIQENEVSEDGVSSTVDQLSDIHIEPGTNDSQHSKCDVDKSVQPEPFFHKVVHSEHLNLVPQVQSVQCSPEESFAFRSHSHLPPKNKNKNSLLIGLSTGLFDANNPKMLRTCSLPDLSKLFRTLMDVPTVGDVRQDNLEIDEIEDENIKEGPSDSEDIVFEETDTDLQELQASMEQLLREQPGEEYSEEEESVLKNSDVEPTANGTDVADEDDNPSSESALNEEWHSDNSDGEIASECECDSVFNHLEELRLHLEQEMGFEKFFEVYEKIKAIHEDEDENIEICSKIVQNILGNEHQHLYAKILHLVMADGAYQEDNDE
T8 sequence (Q15759 whole entry): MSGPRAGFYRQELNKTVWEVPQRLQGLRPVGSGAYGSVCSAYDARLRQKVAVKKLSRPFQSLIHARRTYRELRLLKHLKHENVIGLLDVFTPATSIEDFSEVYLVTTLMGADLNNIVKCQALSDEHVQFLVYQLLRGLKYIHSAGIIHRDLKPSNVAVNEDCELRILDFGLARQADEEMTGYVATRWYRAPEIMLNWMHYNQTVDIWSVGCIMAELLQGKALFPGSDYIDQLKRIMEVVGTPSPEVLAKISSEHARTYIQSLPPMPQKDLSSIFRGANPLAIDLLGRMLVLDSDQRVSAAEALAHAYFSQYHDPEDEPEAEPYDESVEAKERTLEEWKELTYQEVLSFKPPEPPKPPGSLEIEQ

As to `Cc1ccc(NC(=O)c2cccc(C(F)(F)F)c2)cc1Nc1cc(-c2cccnc2)nc2[nH]ccc12` [HZX-02-059], the remaining binding at 1 µM in test [1] was found to be 48%; in [2] it was 94%; in [3] it was 93%; in [4] it was 99%; in [5], 88%; in [6], 87%. Besides, the remaining binding at 1 µM turned out to be 98% in test [7]; 80% in test [8]; 100% in test [9]; 95% in test [10]; 95% in test [11]; 89% in [12]. Further, the remaining binding at 1 µM in test [13] was found to be 92%; in test [14], 86%; in test [15] it was 78%; in [16], 89%; in test [17], 95%; in test [18], 92%. In addition, the remaining binding at 1 µM was 100% in test [19]; 94% in test [20]; 78% in [21]; 89% in test [22]; 100% in test [23]; 64% in test [24].
